Consider 14 compounds from patent US6730666B1, “Pharmaceutical compositions comprising porphyrins and some novel porphyrin derivatives” (Yeda Research and Development Co. Ltd., priority 1998, dated 2004).

Assay [1] concerns Lewis lung carcinoma (LLC) lung metastasis. The experiment in a line: Lewis lung carcinoma lung metastasis model. Type of assay: in vivo, C57 black mice. Details: Inhibitory activity in vivo, LLC tumor model (as % of total inhibition): reference not given here. The following applies: for Inhibitory activity in vivo, LLC tumor model (as % of total inhibition): 25 μg/gram, LLC murine tumor model, lung metastasis. On the procedure:
(vii) Lewis lung carcinoma tumor assay. Murine Lewis lung carcinoma (LLC) D122 cells (1×10^6 cells/[…] PBS) were injected into the foot pads of 10-week old C57 black mice (O'Reilly et al, 1994). Twenty five μg/g of body mass of porphyrin or corrole compound dissolved in PBS were injected IP twice a week to the treated group, and tumor size was measured periodically in order to follow primary tumor formation. In order to evaluate inhibition of lung metastasis by porphyrin or corrole compound, the primary tumors were allowed to develop over a period of six weeks to a volume of approximately 8 mm^3; after which the tumors were removed and metastases were allowed to develop for four weeks. During this time the treated group received 25 μg/g of body mass of porphyrin or corrole compound IP twice a week. Subsequently the mice were sacrificed, dissected and the lungs removed and photographed. The extent of lung metastasis was measured by weighing the lungs.
After establishing the capacity of P1 to inhibit primary tumor growth, the capacity of P1 to inhibit lung metastasis formation was measured as described in Methods, section (vi). Mice were injected with LLC cells (200,000 cells per mouse) into the foot pad and primary tumors were allowed to develop over a period of 3 to 4 weeks to a volume of approximately 8 mm^3. Subsequently, primary tumors were removed through amputation and lung metasases were allowed to develop for four weeks before the mice were sacrificed. The extent of lung metastasis at this point was examined by gross morphological examination and by determining the gain in lung weight. […] In order to quantitate the results from these experiments, the lungs from all mice were weighed and evaluated for the extent of metastatic growth.

In assay [2] the target is T1, FGFR-1 alkaline phosphatase fusion protein (FRAP) (Mus musculus, UniProt P16092).
T1 construct: soluble FGFR-1 ectodomain alkaline phosphatase fusion protein (FRAP); made in house; host or cells: NIH 3T3 cells (conditioned medium)
T1 sequence (P16092 22-376 limits assumed): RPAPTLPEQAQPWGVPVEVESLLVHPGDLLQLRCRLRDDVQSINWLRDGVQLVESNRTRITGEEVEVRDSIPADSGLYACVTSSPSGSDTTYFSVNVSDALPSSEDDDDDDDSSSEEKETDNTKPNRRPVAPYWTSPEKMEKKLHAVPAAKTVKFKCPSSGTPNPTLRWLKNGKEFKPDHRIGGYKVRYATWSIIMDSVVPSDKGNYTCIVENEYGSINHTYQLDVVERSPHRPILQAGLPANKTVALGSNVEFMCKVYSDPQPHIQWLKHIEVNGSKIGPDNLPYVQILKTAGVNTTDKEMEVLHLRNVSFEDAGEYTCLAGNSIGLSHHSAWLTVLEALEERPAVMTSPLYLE
The assay is described as follows: Binding of soluble FGFR-1 alkaline phosphatase fusion protein (FRAP) to bFGF immobilized on heparin (Screen AP assay). The conditions noted are these: binding of FGF to FGFR; Methods section (ii); read-out: Screen AP assay (IC50). On the procedure:
(ii) Binding of soluble FGFR-1 alkaline phosphatase fusion protein (FRAP) to immobilized bFGF. […] The end-point of the assay measured enzymatically the formation of FGF-receptor complexes quantitated by the specifically associated alkaline phosphatase (AP) catalyzed chromogenic product.
Subsequently, 200 μl of FRAP condition medium and porphyrin/corrole compound were added and incubated together for 2 h.
In order to identify inhibitors of FGF-FGFR interactions, an assay for testing FGFR-ligand binding was developed. The system is composed of bFGF bound to a heparin matrix to which soluble FGFR-1 ectodomain alkaline phosphatase fusion protein (FRAP) and the screened compounds are added (see Methods, section (ii)).

Assay [3] has as its target T2, FGFR-1 (Mus musculus, UniProt P16092). The experiment in a line: Binding of 125I-bFGF to CHO cells expressing FGFR-1.
Source text: First we utilized a cell-free system, measuring the binding of radiolabeled bFGF to a dimeric soluble FGFR-1 fused to alkaline phosphatase. The soluble FRAP was immobilized using an anti-alkaline phosphatase antibody prebound to agarose-protein A beads (see Methods, section (iii)). As a: second experimental model, we used CHO cells deficient in heparan sulfate and genetically engineered to express FGFR-1 (Methods, section (iv)).
For the next assay, the target named is T3, soluble FGFR-1 (FRAP) (Mus musculus, UniProt P16092).
T3 sequence (P16092 22-376 limits assumed): T1 sequence (P16092 22-376 limits assumed)
The assay is described as follows: Binding of 125I-bFGF to immobilized soluble FGFR-1 (FRAP), cell-free.

Assay [4] deals with T2, FGFR-1. The experiment in a line: Covalent cross-linking of 125I-bFGF to CHO cells transfected with FGFR-1. Type of assay: binding. Set-up: expressed in transfected cells; host or cells: CHO cells deficient in heparan sulfate. The following applies: FIG. 2. On the procedure:
Binding of ^125I-bFGF to confluent monolayers of PGFR-1 expressing CHO cells or ^125I-FGF9 to FGFR-3 expressing CHO cells, was performed as described in Methods, section (iv), in the presence or absence of P1 (Inhibitor). After 90 min, disuccinylimidyl suberate [DSS]
(iv) Binding of ^125I-bFGF and ^125I-FGF9 to cells. Confluent cultures of CHO cells expressing FGFR-1(Yayon et al, 1991) or FGFR-3 (Hecht et al, 1995) in 24-well plates (Falcon) were precooled and washed twice with cold DMEM supplemented with 20 mM Hepes (pH 7.5) and 0.1% bovine serum albumin (DMEM/BSA). They were then incubated for 1.5 h at 4° C. with ^125I-bFGF (2 ng/ml) and increasing concentrations of porphyrin/corrole compound. The binding medium was discarded and the cells were washed once with ice-cold DMEM/BSA and twice with cold PBS (pH 7.5) containing 1.6M NaCl. […] Non-specific binding was determined in the presence of a 100-fold excess of unlabeled bFGF.
In order to unequivocally determine the specificity of the binding inhibition, chemical cross-linking of ^125I-bFGF and ^125I-FGF9 to CHO cells transfected with FGFR-1 and FGFR-3, respectively, was carried out as described in Methods, section (iv), in the absence or presence of increasing concentrations of P1.

Where [5] appears, read: read-out: Cellular receptor binding (IC50), binding of FGF to FGFR, Methods section (iv).
Setting [6] is: read-out: Soluble receptor binding (IC50), binding of FGF to FGFR, Methods section (iii).

Read-outs that look alike come from different tables or passages of the source.

T2 sequence (P16092 22-822): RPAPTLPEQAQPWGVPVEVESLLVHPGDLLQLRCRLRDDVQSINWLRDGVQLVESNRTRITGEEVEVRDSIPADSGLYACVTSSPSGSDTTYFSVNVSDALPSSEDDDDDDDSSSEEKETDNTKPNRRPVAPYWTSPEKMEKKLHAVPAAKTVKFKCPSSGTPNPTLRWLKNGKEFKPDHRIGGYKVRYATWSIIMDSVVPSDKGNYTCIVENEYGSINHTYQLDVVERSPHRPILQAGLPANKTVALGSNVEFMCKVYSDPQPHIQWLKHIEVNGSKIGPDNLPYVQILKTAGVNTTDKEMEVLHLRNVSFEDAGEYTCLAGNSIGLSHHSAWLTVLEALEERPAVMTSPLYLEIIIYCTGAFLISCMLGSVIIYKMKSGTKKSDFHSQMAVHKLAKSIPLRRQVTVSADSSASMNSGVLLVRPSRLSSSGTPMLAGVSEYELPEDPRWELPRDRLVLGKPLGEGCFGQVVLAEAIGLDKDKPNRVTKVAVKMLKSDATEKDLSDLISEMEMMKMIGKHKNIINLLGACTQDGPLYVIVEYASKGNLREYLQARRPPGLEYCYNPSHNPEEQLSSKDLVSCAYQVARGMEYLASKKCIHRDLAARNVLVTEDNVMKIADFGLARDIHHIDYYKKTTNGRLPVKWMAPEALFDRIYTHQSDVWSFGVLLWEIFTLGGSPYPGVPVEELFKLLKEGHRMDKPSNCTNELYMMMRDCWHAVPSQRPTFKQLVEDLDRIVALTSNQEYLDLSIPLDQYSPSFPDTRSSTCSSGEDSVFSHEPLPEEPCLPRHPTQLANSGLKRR
Source text for soluble FGFR-1 (FRAP): First we utilized a cell-free system, measuring the binding of radiolabeled bFGF to a dimeric soluble FGFR-1 fused to alkaline phosphatase. […] As a: second experimental model, we used CHO cells deficient in heparan sulfate and genetically engineered to express FGFR-1 (Methods, section (iv)).

On to `C[n+]1ccccc1-c1c2nc(c(-c3cccc[n+]3C)c3ccc([nH]3)c(-c3cccc[n+]3C)c3nc(c(-c4cccc[n+]4C)c4ccc1[nH]4)C=C3)C=C2` (single isomer, unassigned) [Compound P7, 5,10,15,20-Tetrakis-(N-methyl-2-pyridylium)-21H,23H-porphine tetraiodide], for which the “Inhibitory activity in vivo, LLC tumor model (as % of total inhibition)” value (from here on “Inhibitory activity … (as % of total inhibition)”) in assay [1] was found to be 90%.
As usually defined, the IC50 is the concentration that inhibits the measured activity by half. As for `COc1ccc(-c2c3nc(c(-c4ccc(OC)cc4)c4ccc([nH]4)c(-c4ccc(OC)cc4)c4nc(c(-c5ccc(OC)cc5)c5ccc2[nH]5)C=C4)C=C3)cc1` [Compound P3, 5,10,15,20-Tetrakis(4-methoxyphenyl)-21H,23H-porphine], the IC50 in assay [2] is above 10000 nM.
Consider `C[N+](C)(C)c1ccc(-c2c3nc(c(-c4ccc([N+](C)(C)C)cc4)c4ccc([nH]4)c(-c4ccc([N+](C)(C)C)cc4)c4nc(c(-c5ccc([N+](C)(C)C)cc5)c5ccc2[nH]5)C=C4)C=C3)cc1` [Compound P5, 5,10,15,20-Tetrakis[4-(trimethylammonio)phenyl]-21H,23H-porphine tetra-p-tosylate], for which the concentration for half-maximal inhibition (IC50) on FGFR-1 [3] is 1800 nM; at soluble FGFR-1 (FRAP) it was 900 nM; in assay [2] it was 100 nM. Besides, in assay [1], the “Inhibitory activity … (as % of total inhibition)” value was found to be 75%.
In the case of `C[n+]1ccc(-c2c3nc(c(-c4cc[n+](C)cc4)c4ccc([nH]4)c(-c4cc[n+](C)cc4)c4nc(c(-c5cc[n+](C)cc5)c5ccc2[nH]5)C=C4)C=C3)cc1` [Compound P8, 5,10,15,20-Tetrakis-(N-methyl-4-pyridylium)-21H,23H-porphine tetraiodide], the IC50 at FGFR-1 [3] (Cellular receptor binding (IC50), binding of FGF to FGFR, Methods section (iv)) was 1300 nM; on soluble FGFR-1 (FRAP) (Soluble receptor binding (IC50), binding of FGF to FGFR, Methods section (iii)), 950 nM; in assay [2], 95 nM. Also, the “Inhibitory activity … (as % of total inhibition)” value in assay [1] is recorded as 90%.
Turning to `C[n+]1ccc(C2=Cc3cc4[nH]c(cc5nc(cc6[nH]c(cc2n3)cc6-c2cc[n+](C)cc2)C=C5c2cc[n+](C)cc2)cc4-c2cc[n+](C)cc2)cc1` [Compound P10, 3,8,13,18-Tetrakis(N-methyl-4-pyridylium)-21H,23H-porphine tetraiodide], the IC50 stood at 1900 nM on FGFR-1 [3] (setting [5]), 850 nM on soluble FGFR-1 (FRAP) (setting [6]) and 80 nM in assay [2].
Consider `O=C(O)c1ccc(-c2c3nc(c(-c4ccc(C(=O)O)cc4)c4ccc([nH]4)c(-c4ccc(C(=O)O)cc4)c4nc(c(-c5ccc(C(=O)O)cc5)c5ccc2[nH]5)C=C4)C=C3)cc1` [Compound P11, 5,10,15,20-Tetrakis(4-carboxylatophenyl) 21H,23H-porphine tetraammonium], for which the IC50 at FGFR-1 [3] was above 10000 nM; in assay [2], 500 nM.
Regarding `C[n+]1cccc(-c2c3nc(c(-c4ccc[n+](C)c4)c4ccc([nH]4)c(-c4ccc[n+](C)c4)c4nc(c(-c5ccc[n+](C)c5)c5ccc2[nH]5)C=C4)C=C3)c1.Cc1ccc(S(=O)(=O)[O-])cc1.Cc1ccc(S(=O)(=O)[O-])cc1.Cc1ccc(S(=O)(=O)[O-])cc1.Cc1ccc(S(=O)(=O)[O-])cc1` [Compound P12, 5,10,15,20-Tetrakis(N-methyl-3-pyridylium)-21H,23H-porphine tetra-p-tosylate], the IC50 on FGFR-1 [3] (setting [5]) is above 10000 nM; on soluble FGFR-1 (FRAP) (setting [6]), 10000 nM. The “Inhibitory activity … (as % of total inhibition)” value in assay [1] is recorded as 0%.
`C[n+]1cccc(-c2c3nc(c(-c4ccc[n+](C)c4)c4ccc([nH]4)c(-c4ccc[n+](C)c4)c4nc(c(-c5ccc[n+](C)c5)c5ccc2[nH]5)C=C4)C=C3)c1` [Compound P13, 5,10,15,20-Tetrakis(N-methyl-3-pyridylium)-21H,23H-porphine tetraiodide]: the IC50 on FGFR-1 [3] and at soluble FGFR-1 (FRAP) was above 10000 nM in each case.
Consider `C[n+]1ccc(-c2c3nc(c(-c4c(F)c(F)c(F)c(F)c4F)c4ccc([nH]4)c(-c4cc[n+](C)cc4)c4nc(c(-c5c(F)c(F)c(F)c(F)c5F)c5ccc2[nH]5)C=C4)C=C3)cc1` [Compound P17, 5,15-Bis(pentafluorophenyl)-10,20-bis(N-methyl-4-pyridylium)-21H,23H-porphine diiodide], for which the concentration for half-maximal inhibition (IC50) at FGFR-1 [3] came to 30 nM; at soluble FGFR-1 (FRAP), 20 nM. The “Inhibitory activity … (as % of total inhibition)” value in assay [1] turned out to be 40%.
The like results for `C[n+]1ccc(-c2c3nc(c(-c4cc[n+](C)cc4)c4ccc([nH]4)c(-c4c(F)c(F)c(F)c(F)c4F)c4nc(c(-c5c(F)c(F)c(F)c(F)c5F)c5ccc2[nH]5)C=C4)C=C3)cc1` [Compound P18, 5,10-Bis(pentafluorophenyl)-15,20-bis(N-methyl-4-pyridylium)-21H,23H-porphine diiodide] were, in that order, 100 nM, 75 nM and 50%.
As for `C[n+]1ccc(-c2c3nc(c(-c4cc[n+](C)cc4)c4ccc([nH]4)c(-c4c(F)c(F)c(NCCCN)c(F)c4F)c4nc(c(-c5cc[n+](C)cc5)c5ccc2[nH]5)C=C4)C=C3)cc1` [Compound P19], the IC50 on FGFR-1 [3] (setting [5]) came to 2000 nM; in assay [2], 100 nM.
Take `C[n+]1ccccc1-c1c(F)c(F)c(-c2c3nc(c(-c4c(F)c(F)c(-c5cccc[n+]5C)c(F)c4F)c4ccc([nH]4)c4ccc([nH]4)c(-c4c(F)c(F)c(-c5cccc[n+]5C)c(F)c4F)c4ccc2[nH]4)C=C3)c(F)c1F` [Compound P21, 5,10,15-Tris[2,3,5,6-tetrafluorophenyl-4-(N-methyl-2-pyridylium)]-21H,23H-corrole triiodide]: the “Inhibition of bFGF binding to immobilized FRAP, in words” value at soluble FGFR-1 (FRAP) (FIG. 8B) is listed as “inhibit bFGF binding in vitro”. In assay [1] (25 μg/g of body mass IP), the “Inhibition of lung metastasis in LLC model, in words” value is “highly active in vivo”. In assay [1], the “Inhibitory activity … (as % of total inhibition)” value is recorded as 200%. The “Concentration inhibiting lung metastasis formation in vivo” value in assay [1] (mouse, in vivo) came to 5 mg/kg body weight.
As to `Cc1ccc(C(=O)Nc2ccc(S(=O)(=O)O)c3cc(S(=O)(=O)O)cc(S(=O)(=O)O)c23)cc1NC(=O)c1cccc(NC(=O)Nc2cccc(C(=O)Nc3cc(C(=O)Nc4ccc(S(=O)(=O)O)c5cc(S(=O)(=O)O)cc(S(=O)(=O)O)c45)ccc3C)c2)c1` [Suramin, reference compound], on FGFR-1 [4], the “Inhibition of bFGF-receptor complex formation (cross-linking), in words” value is recorded as “demonstrated FGF receptor binding inhibition”.
Consider “Tetrakis(4-cumyloxyphenoxy)phthalocyanine [Compound P4]”, for which the IC50 in assay [2] was above 10000 nM.
